One experiment addresses PIM2 (Homo sapiens (Human), UniProt Q9P1W9). As to the kind of experiment: Pim kinase binding activity, Caliper LC3000 microfluidic peptide phosphorylation assay, PIM2. It is filed as biochemical. As to conditions: 10 μM ATP, 90 min, room temperature; read-out: PIM2 LC3K (KI). The method, boiled down:
(§1)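 Read-out is microfluidic electrophoretic separation of phosphorylated from unphosphorylated fluorescent Pim peptide, with Ki calculated from conversion. Reactions ran 90 min at room temperature in HEPES pH 7.2 containing MgCl2, Tween 20 and DTT, ended by EDTA-containing buffer.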

A further experiment addresses PIM3 (Homo sapiens (Human), UniProt Q86V86). As to the kind of experiment: Pim kinase binding activity, Caliper LC3000 microfluidic peptide phosphorylation assay, PIM3. Format: biochemical. As to conditions: 10 μM ATP, 90 min, room temperature; read-out: PIM3 LC3K (KI). The method, boiled down:
as §1

The test system of experiment [1] is MM1.S (multiple myeloma) cells. Briefly: In vitro cell proliferation potency assay (Cell Titer Glo), MM1.S cells. Format: cell-based. Conditions: Homo sapiens, MM1.S cells, 72 hours, read-out: Prolif MM1S ATP (EC50). The protocol: (§2) BaF3 parental line was obtained from the DSMZ repository. BaF3 lines transfected with PIM1 or PIM2 were generated. Mouse IL-3 was purchased from R&D Systems. G418 was purchased from Clontech. Media for BaF3 parental line contained RPMI, 10% FBS, 2 mM L-Glutamine, 2 ng/mL mIL-3. Media for BaF3 PIM1 & 2 lines contained RPMI, 10% FBS, 2 mM L-Glutamine, […]. Media for MM1.S (multiple myeloma cells) line contained RPMI, 10% FBS, 2 mM L-Glutamine.
(§3) BaF3, a murine interleukin-3 dependent pro-B cell line, parental cells, BaF3 PIM1 cells, BaF3 PIM2 cells, and MM1.S (multiple myeloma) cells were seeded at 2 k/well, 5 k/well, 5 k/well, and 10 k/well respectively, in a 384-well plate, at 45 μL/well. Test compound was added at 5 μL/well. BaF3 cells (parental and transfected) were incubated overnight, while MM1.S cells were incubated for 72 hours at 37° C., 5% CO2. CELL TITER GLO® Reagent (Promega) was added at 50 μL/well, the plates were incubated for 30 minutes, and their luminescence read on an HT Analyst. IC50/EC50 values for the test compound were calculated.
On the technique in general: ATP-based viability assays read luminescence as a measure of living cells.

In a further experiment the target is PIM1 (Homo sapiens (Human), UniProt P11309). Briefly: biochemical. Format: biochemical. Conditions: 10 μM ATP, 90 min, room temperature; read-out: PIM1 LC3K (KI). Summed up: as §1
PIM1, sequence (P11309 whole entry): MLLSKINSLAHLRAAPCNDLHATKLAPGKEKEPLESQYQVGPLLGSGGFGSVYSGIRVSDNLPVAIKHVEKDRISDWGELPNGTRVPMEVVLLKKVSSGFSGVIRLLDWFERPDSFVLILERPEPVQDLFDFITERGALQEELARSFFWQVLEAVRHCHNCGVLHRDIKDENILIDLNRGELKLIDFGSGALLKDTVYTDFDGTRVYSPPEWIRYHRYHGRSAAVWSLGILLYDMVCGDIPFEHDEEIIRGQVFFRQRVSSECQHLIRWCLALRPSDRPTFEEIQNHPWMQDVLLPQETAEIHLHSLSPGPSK
Another experiment concerns BaF3 PIM1 cells. As to the kind of experiment: In vitro cell proliferation potency assay (Cell Titer Glo), BaF3 PIM1 cells. Format: cell-based, murine. Conditions: Mus musculus, BaF3, BaF3 cells transfected with PIM1, incubated overnight; read-out: Prolif BaF3_PIM 1 (IC50). The protocol:
as §2, §3

From US9434725B2, “5-azaindazole compounds and methods of use” (priority 2012, dated 2016) come the findings set out here.

SMILES strings stand for the structures. Where two headings read alike, the source gives them in different places.

PIM2, sequence (Q9P1W9 whole entry): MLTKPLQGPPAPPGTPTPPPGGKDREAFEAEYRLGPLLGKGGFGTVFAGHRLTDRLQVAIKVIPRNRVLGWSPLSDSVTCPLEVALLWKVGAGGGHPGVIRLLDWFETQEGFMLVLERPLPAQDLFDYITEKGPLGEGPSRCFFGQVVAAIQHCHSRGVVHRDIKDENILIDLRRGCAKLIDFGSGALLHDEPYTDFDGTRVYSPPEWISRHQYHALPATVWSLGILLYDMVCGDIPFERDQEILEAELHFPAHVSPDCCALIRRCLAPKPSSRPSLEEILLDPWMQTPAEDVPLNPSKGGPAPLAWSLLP

A word on the Ki: it is a dissociation constant, usually derived from enzyme kinetics or from competition with a known ligand. What is called EC50 is the midpoint of the concentration-response curve. On to `Cc1cncc(-c2cc3c(cn2)cnn3-c2cccc(N3CCCNCC3)n2)c1` [Compound 141, 1-(6-(1,4-diazepan-1-yl)pyridin-2-yl)-6-(5-methylpyridin-3-yl)-1H-pyrazolo[4,3-c]pyridine], for which the inhibitory constant (Ki) on PIM2 turned out to be 3.37 nM; at PIM3 it was 0.078 nM. In experiment [1] (MM1.S, 72 h), the EC50 amounted to 5000 nM.
Regarding `CCc1cncc(-c2cc3c(cn2)cnn3-c2cccc(N3CCCNCC3)n2)n1` [Compound 150, 1-[6-(1 4-diazepan-1-yl)-2-pyridyl]-6-(6-ethylpyrazin-2-yl)pyrazolo[4 3-c]pyridine], the results for the Ki at PIM2 and on PIM3 were 0.333 nM and 0.019 nM, respectively. Further, in experiment [1], the EC50 was found to be 1900 nM.
As to `OCC(O)c1cncc(-c2cc3c(cn2)cnn3-c2cccc(N3CCNCC3)n2)n1` (stereo not shown) [Compound 277, 1-(6-(1-(6-(piperazin-1-yl)pyridin-2-yl)-1H-pyrazolo[4,3-c]pyridin-6-yl)pyrazin-2-yl)ethane-1,2-diol], on PIM2, the Ki turned out to be 4.67 nM. Moreover, in experiment [1] (MM1.S, 72 h), the EC50 was found to be 4200 nM.
For `Cc1cncc(-c2cc3c(cn2)cnn3-c2cccc(N3CCCNCC3)n2)n1` [Compound 138, 1-[6-(1 4-diazepan-1-yl)-2-pyridyl]-6-(6-methylpyrazin-2-yl)pyrazolo[4,3-c]pyridine], the inhibition constant Ki on PIM2 was 0.44 nM. Besides, the EC50 in experiment [1] (MM1.S, 72 h) came out at 4600 nM.
Regarding `OCCNc1cncc(-c2cc3c(cn2)cnn3-c2cccc(N3CCNCC3)n2)n1` [Compound 282, 2-[[6-[1-(6-piperazin-1-yl-2-pyridyl)pyrazolo[4,3-c]pyridin-6-yl]pyrazin-2-yl]amino]ethanol], the results for the inhibition constant Ki at PIM2 and at PIM3 were 0.357 nM and 0.021 nM, respectively. In addition, in experiment [1] (MM1.S, 72 h), the 50% effective concentration (EC50) was determined as 9700 nM.
In the case of `CCn1cncc(-c2cc3c(cn2)cnn3-c2cccc(N3CCNCC3)n2)c1=O` [Compound 151, 3-ethyl-5-[1-(6-piperazin-1-yl-2-pyridyl)pyrazolo[4,3-c]pyridin-6-yl]pyrimidin-4-one], the figures for the Ki at PIM2 and on PIM3 were 3.32 nM and 0.081 nM, respectively. Moreover, the 50% effective concentration (EC50) in experiment [1] (MM1.S, 72 h) came out at 8600 nM.
For `FCCn1cc(-c2cc3c(cn2)cnn3-c2cccc(N3CCCNCC3)n2)cn1` [Compound 153, 1-(6-(1,4-Diazepan-1-yl)pyridin-2-yl)-6-(1-(2-fluoroethyl)-1H-pyrazol-4-yl)-1H-pyrazolo[4,3-c]pyridine], in that order: 1.37 nM, 0.085 nM and 2500 nM.
With `CCc1cncc(-c2cc3c(cn2)cnn3-c2cccc(N3CCNC[C@@H](O)C3)n2)c1` (single isomer, unassigned) [Compound 122], the Ki worked out at 4.59 nM on PIM2 and 0.083 nM on PIM3. In experiment [1] (MM1.S, 72 h), the concentration giving a half-maximal response (EC50) worked out at 2700 nM.
With `N#CCn1cc(-c2cc3c(cn2)cnn3-c2cccc(N3CCCNCC3)n2)cn1` [Compound 155, 2-(4-(1-(6-(1,4-Diazepan-1-yl)pyridin-2-yl)-1H-pyrazolo[4,3-c]pyridin-6-yl)-1H-pyrazol-1-yl)acetonitrile], the inhibition constant (Ki) stood at 1.49 nM on PIM2 and 0.109 nM at PIM3. In addition, the half-maximal effective concentration (EC50) in experiment [1] (MM1.S, 72 h) was 3500 nM.
On to `Cc1cncc(-c2cc3c(cn2)cnn3-c2cccc(N3CC(N)CCC3C)n2)n1` (single isomer, unassigned) [Compound 182, 6-methyl-1-[6-[6-(6-methylpyrazin-2-yl)pyrazolo[4,3-c]pyridin-1-yl]-2-pyridyl]piperidin-3-amine], for which the EC50 in experiment [1] (MM1.S, 72 h) turned out to be 1900 nM.
For the compound `OCC#Cc1cncc(-c2cc3c(cn2)cnn3-c2cccc(N3CCNCC3)n2)n1` [Compound 300, 3-(6-(1-(6-(piperazin-1-yl)pyridin-2-yl)-1H-pyrazolo[4,3-c]pyridin-6-yl)pyrazin-2-yl)prop-2-yn-1-ol], the figures for the inhibition constant Ki on PIM2 and on PIM3 were 0.228 nM and 0.032 nM, respectively. Further, the EC50 in experiment [1] (MM1.S, 72 h) was found to be 2400 nM.
Turning to `NCCOc1cncc(-c2cc3c(cn2)cnn3-c2cccc(N3CCNCC3)n2)n1` [Compound 286, 2-((6-(1-(6-(piperazin-1-yl)pyridin-2-yl)-1H-pyrazolo[4,3-c]pyridin-6-yl)pyrazin-2-yl)oxy)ethanamine], the Ki on PIM3 was found to be 0.092 nM. In addition, in experiment [1] (MM1.S, 72 h), the half-maximal effective concentration (EC50) came out at 8200 nM.
Turning to `c1cc(N2CCNCC2)nc(-n2ncc3cnc(-c4cnccn4)cc32)c1` [Compound 144, 1-(6-piperazin-1-yl-2-pyridyl)-6-pyrazin-2-yl-pyrazolo[4,3-c]pyridine], the values for the Ki on PIM2 and on PIM3 were 1.16 nM and 0.05 nM, respectively. In addition, the 50% effective concentration (EC50) in experiment [1] (MM1.S, 72 h) worked out at 2600 nM.
Consider `Cc1cncc(-c2cc3c(cnn3-c3cccc(N4CCNCC4)n3)nn2)n1` [Compound 313, 6-(6-methylpyrazin-2-yl)-1-(6-(piperazin-1-yl)pyridin-2-yl)-1H-pyrazolo[4,3-c]pyridazine], for which the Ki at PIM2 stood at 0.71 nM; on PIM3, 0.05 nM. Further, the EC50 in experiment [1] (MM1.S, 72 h) is 7100 nM.
The matching figures for `CC#Cc1cncc(-c2cc3c(cn2)cnn3-c2cccc(N3CCNCC3)n2)n1` [Compound 317, 1-(6-(piperazin-1-yl)pyridin-2-yl)-6-(6-(prop-1-ynyl)pyrazin-2-yl)-1H-pyrazolo[4,3-c]pyridine]: 1.71 nM, 0.026 nM and 2700 nM.
For the compound `Cc1cncc(-c2cc3c(cn2)cnn3-c2cccc(N3CC[C@@H](N)C3)n2)n1` [Compound 168, (3R)-1-[6-[6-(6-methylpyrazin-2-yl)pyrazolo[4,3-c]pyridin-1-yl]-2-pyridyl]pyrrolidin-3-amine], the inhibition constant Ki on PIM2 was determined as 4.74 nM; on PIM3, 0.806 nM. Further, in experiment [1] (MM1.S, 72 h), the concentration giving a half-maximal response (EC50) is 5000 nM.
In general, IC50 refers to the concentration that inhibits the measured activity by half. In the case of `FC(F)(F)Cn1cc(-c2cc3c(cn2)cnn3-c2cncc(N3CCCNCC3)n2)cn1` [Compound 178, 1-(6-(1,4-Diazepan-1-yl)pyrazin-2-yl)-6-(1-(2,2,2-trifluoroethyl)-1H-pyrazol-4-yl)-1H-pyrazolo[4,3-c]pyridine], the Ki worked out at 0.386 nM on PIM1, 6.68 nM at PIM2 and 1.35 nM at PIM3. Besides, the IC50 in the experiment on BaF3 PIM1 cells turned out to be 549 nM.
For `FC1CCNCC1c1cccc(-n2ncc3cnc(-c4cnn(CC(F)(F)F)c4)cc32)n1` (stereo not shown) [Compound 306, 1-(6-(4-fluoropiperidin-3-yl)pyridin-2-yl)-6-(1-(2,2,2-trifluoroethyl)-1H-pyrazol-4-yl)-1H-pyrazolo[4,3-c]pyridine], the inhibition constant Ki on PIM3 came out at 0.125 nM. For the same compound, the 50% effective concentration (EC50) in experiment [1] (MM1.S, 72 h) was 1700 nM.
As to `Cc1cncc(-c2cc3c(cn2)cnn3-c2cnc(C)c(N3CCC[C@H](N)C3)n2)n1` [Compound 228, (3S)-1-[3-methyl-6-[6-(6-methylpyrazin-2-yl)pyrazolo[4,3-c]pyridin-1-yl]pyrazin-2-yl]piperidin-3-amine], the Ki was 0.074 nM on PIM1, 0.724 nM on PIM2 and 0.047 nM on PIM3. Further, in the experiment on BaF3 PIM1 cells, the half-inhibitory concentration (IC50) worked out at 778 nM.
For `N[C@@H]1CCCN(c2cccc(-n3ncc4cnc(-c5cncs5)cc43)n2)C1` [Compound 110, (3R)-1-[6-(6-thiazol-5-ylpyrazolo[4,3-c]pyridin-1-yl)-2-pyridyl]piperidin-3-amine], in that order: 0.504 nM, 4.5 nM, 0.37 nM and 1700 nM.
The matching figures for `Cc1cncc(-c2cc3c(cn2)cnn3-c2cccc(N3C[C@@H](N)C[C@@H](F)C3)n2)n1` [Compound 198, (3S,5R)-5-fluoro-1-[6-[6-(6-methylpyrazin-2-yl)pyrazolo[4,3-c]pyridin-1-yl]-2-pyridyl]piperidin-3-amine]: 0.117 nM, 2.55 nM, 0.089 nM and 1100 nM.
The matching figures for `CC(C)(C)n1cc(-c2cc3c(cn2)cnn3-c2cccc(N3CCCNCC3)n2)cn1` [Compound 145, 1-(6-(1,4-Diazepan-1-yl)pyridin-2-yl)-6-(1-tert-butyl-1H-pyrazol-4-yl)-1H-pyrazolo[4,3-c]pyridine]: 0.362 nM, 10.5 nM, 0.636 nM and 2500 nM.
Consider `c1cc(N2CCCNCC2)nc(-n2ncc3cnc(-c4cncc(C5CC5)c4)cc32)c1` [Compound 112], for which the Ki at PIM1 is 0.038 nM; at PIM2, 3.87 nM; at PIM3 it was 0.093 nM. Further, in the experiment with BaF3 PIM1 cells, the concentration for half-maximal inhibition (IC50) was found to be 490 nM.
For `Cc1cncc(-c2cc3c(cn2)cnn3-c2cccc(N3CCC[C@@H](O)C3)n2)n1` [Compound 298, (R)-1-(6-(6-(6-methylpyrazin-2-yl)-1H-pyrazolo[4,3-c]pyridin-1-yl)pyridin-2-yl)piperidin-3-ol], in that order: 0.854 nM, 2.68 nM, 0.396 nM and 1600 nM.
